The values that follow come from patent publication US10584116B2, “Heterocyclic sulfonamide derivative and medicine containing same” (EA Pharma Co., Ltd., priority 2016, dated 2020).

pIC50: −log10 of the molar value.

human TRPA1, sequence (O75762 whole entry): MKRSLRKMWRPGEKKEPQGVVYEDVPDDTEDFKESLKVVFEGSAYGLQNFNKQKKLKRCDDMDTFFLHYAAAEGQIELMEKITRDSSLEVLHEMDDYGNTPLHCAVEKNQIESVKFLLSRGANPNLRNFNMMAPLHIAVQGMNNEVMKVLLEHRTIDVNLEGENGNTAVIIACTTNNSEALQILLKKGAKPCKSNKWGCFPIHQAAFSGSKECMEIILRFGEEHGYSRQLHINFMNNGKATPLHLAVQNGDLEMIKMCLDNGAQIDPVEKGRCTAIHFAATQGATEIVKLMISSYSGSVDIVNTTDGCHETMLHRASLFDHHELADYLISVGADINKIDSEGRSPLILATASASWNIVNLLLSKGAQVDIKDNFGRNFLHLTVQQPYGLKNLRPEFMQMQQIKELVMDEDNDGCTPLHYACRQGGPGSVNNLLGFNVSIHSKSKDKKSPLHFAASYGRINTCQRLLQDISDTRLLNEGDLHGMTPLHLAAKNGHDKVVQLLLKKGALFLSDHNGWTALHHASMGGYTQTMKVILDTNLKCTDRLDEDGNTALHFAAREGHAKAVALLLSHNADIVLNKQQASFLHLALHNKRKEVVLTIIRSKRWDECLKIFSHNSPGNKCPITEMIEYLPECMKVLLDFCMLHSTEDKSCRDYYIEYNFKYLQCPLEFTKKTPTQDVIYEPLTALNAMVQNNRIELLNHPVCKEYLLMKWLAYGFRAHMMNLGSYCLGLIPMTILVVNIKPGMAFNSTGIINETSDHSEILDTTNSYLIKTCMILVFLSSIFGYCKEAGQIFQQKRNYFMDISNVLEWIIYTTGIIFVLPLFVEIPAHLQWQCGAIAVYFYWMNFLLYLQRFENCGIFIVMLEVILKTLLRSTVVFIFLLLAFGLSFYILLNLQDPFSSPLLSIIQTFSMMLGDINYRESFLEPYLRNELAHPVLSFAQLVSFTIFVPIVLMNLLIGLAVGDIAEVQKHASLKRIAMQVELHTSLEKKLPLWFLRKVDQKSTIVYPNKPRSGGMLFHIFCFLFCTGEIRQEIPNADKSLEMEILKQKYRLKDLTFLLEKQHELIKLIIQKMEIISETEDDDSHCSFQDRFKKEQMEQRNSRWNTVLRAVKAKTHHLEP

The experiment concerns the target human TRPA1 (Homo sapiens (Human), UniProt O75762). Nature of the experiment: Measurement of TRPA1 antagonist activity (intracellular calcium increase induced by allylisothiocyanate in 293T cells transfected with human TRPA1). In kind it is cell-based. The settings on record: 293T cells expressing human TRPA1, allylisothiocyanate stimulation, FLIPR Calcium4 fluorescence; read-out: hTRPA1 IC50. As for the experimental part: Measurement of TRPA1 Antagonist Activity
Human TRPA1 Expression Plasmid
Using cDNA encoding human TRPA1 (GenBank accession No. NM_007332) (manufactured by Kazusa DNA Research Institute, item No. FHC07217) as a template, primer 1 (SEQ ID NO: 1) and primer 2 (SEQ ID NO: 2), PCR by PfuUltra High-Fidelity DNA Polymerase (Stratagene) was performed, and full-length human TRPA1 gene was amplified.
A recognition site (underlined) of restriction enzyme HindIII was added to the 5′ end of human TRPA1 gene, and XbaI site (underlined) was added to the 3′ end of human TRPA1 gene, and GTT of the template sequence was changed to termination codon TAG (bold). The obtained double stranded DNA was enzyme-digested with HindIII and XbaI, and introduced into a multicloning site of expression plasmid pcDNA3.1/zeo(+) (manufactured by Invitrogen) to give a human TRPA1 expression plasmid.
Human embryonic kidney-derived 293T cells were cultured in Dulbecco's Modified Eagle Medium containing 10% fetal bovine serum, 10 unit penicillin, and 10 μg streptomycin. One day before assay, 3×10^6 of 293T cells were plated on a petri dish having a diameter of 10 cm, and cultured in a CO2 incubator for 24 hr. OPTI-MEM I Reduced Serum Media (Invitrogen) (600 μL), Mirus TransIT-293 (Mirus Bio) (18 μL), and human TRPA1 expression plasmid (6 μg) were mixed, the total amount of the mixture was added to the cells on the petri dish to allow for gene transfer. The cells were recovered about for 8 hr later, plated on a poly-D-lysine coated 384 well black/clear bottom plate at 12,000 cells/well, and cultured overnight.
Measurement of Intracellular Calcium Increase
The medium was removed from the 384 well plate, calcium indicator (Molecular Device, trade name: FLIPR Calcium4 Assay Kit) dissolved in HBSS (Thermo Fisher Scientific) (pH 7.2) containing 20 mM HEPES was added (38 μL/well), and the cells were stained in a CO2 incubator for 1 hr. The 384 well plate was stood at room temperature for not less than 15 min, set on FDSS7000 (Hamamatsu Photonics K.K.), and a test substance solution was added at 10 μL/well. After 10 min, allylisothiocyanate solution (12 μL/well) was added, the relative fluorescence intensity was measured for 5 min after addition of the allylisothiocyanate solution.
Test Substance Preparation
Preparation of Test Substance Solution and Allylisothiocyanate Solution
A test substance solution was prepared to have a composition of HBSS (Thermo Fisher Scientific) (pH 7.2) containing 0.48% dimethyl sulfoxide, a test substance at 4.8-fold concentration of the evaluation concentration, 0.1% bovine serum albumin and 20 mM HEPES. An allylisothiocyanate solution was prepared to have a composition of HBSS (Thermo Fisher Scientific) (pH 7.2) containing 0.1% dimethyl sulfoxide, 100 μM allylisothiocyanate, 0.1% bovine serum albumin and 20 mM HEPES.
Calculation of Antagonist Activity
The activity rate of a test substance at each concentration was calculated, wherein the relative fluorescence intensity change of a well free of a test substance and containing allylisothiocyanate is 100% activity rate, and the relative fluorescence intensity change of a well free of a test substance and allylisothiocyanate is 0% activity rate. The inhibitory rate of a test substance at each concentration was calculated by subtracting the activity rate of the test substance from 100% activity rate, and the concentration of a test substance showing 50% inhibitory rate was calculated as IC50 from the sigmoid approximate curve by XLfit (idbs).
For orientation: Calcium assays in cells follow changes in intracellular calcium, usually with a dye or a luminescent sensor.
The pIC50 is the negative decadic logarithm of the IC50, by convention in mol/L. `CCn1c(=O)c(CNC(=O)[C@@H]2CCCN2S(=O)(=O)c2cc3ccccc3o2)cn(-c2ccc(C(F)(F)F)cc2)c1=O` [Example 2, (2S)-1-(benzofuran-2-ylsulfonyl)-N-[[3-ethyl-2,4-dioxo-1-[4-(trifluoromethyl)phenyl]pyrimidin-5-yl]methyl]pyrrolidine-2-carboxamide]: the pIC50 is 7.59.

Take `Cc1ccc2oc(S(=O)(=O)N3CCC[C@H]3C(=O)NCc3cn(-c4ccc(C(F)(F)F)cc4)c(=O)n(C(C)C)c3=O)cc2c1` [Example 25, (2S)-N-[[3-isopropyl-2,4-dioxo-1-[4-(trifluoromethyl)phenyl]pyrimidin-5-yl]methyl]-1-(5-methylbenzofuran-2-yl)sulfonyl-pyrrolidine-2-carboxamide]: the negative logarithm of the IC50 (pIC50) was 6.38.

Turning to `CC(C)n1c(=O)c(CNC(=O)[C@@H]2CCCN2S(=O)(=O)c2cc3ccccc3o2)cn(-c2ccc(C(F)(F)F)nc2)c1=O` [Example 29, (2S)-1-(benzofuran-2-ylsulfonyl)-N-[[3-isopropyl-2,4-dioxo-1-[6-(trifluoromethyl)-3-pyridyl]pyrimidin-5-yl]methyl]pyrrolidine-2-carboxamide], the negative-log IC50 (pIC50) was 7.52.

In the case of `CC(C)n1c(=O)c(CNC(=O)[C@@H]2CCCN2S(=O)(=O)c2ccc(F)cc2)cn(-c2ccc(C(F)(F)F)cc2)c1=O` [Example 12, (2S)-1-(4-fluorophenyl)sulfonyl-N-[[3-isopropyl-2,4-dioxo-1-[4-(trifluoromethyl)phenyl]pyrimidin-5-yl]methyl]pyrrolidine-2-carboxamide], the pIC50 was 6.92.

With `CC(C)n1c(=O)c(CNC(=O)[C@@H]2CCCN2S(=O)(=O)c2cc3cnccc3o2)cn(-c2ccc(C(F)(F)F)cn2)c1=O` [Example 36, (2S)-1-fro[3,2-c]pyridin-2-ylsulfonyl-N-[[3-isopropyl-2,4-dioxo-1-[5-(trifluoromethyl)-2-pyridyl]pyrimidin-5-yl]methyl]pyrrolidine-2-carboxamide], the negative logarithm of the IC50 (pIC50) is 6.70.

Turning to `CC(C)n1cc(-c2ccc(C(F)(F)F)cc2)cc(CNC(=O)[C@@H]2CCCN2S(=O)(=O)c2cc3ccccc3o2)c1=O` [Example 15, (2S)-1-(benzofuran-2-ylsulfonyl)-N-[[1-isopropyl-2-oxo-5-[4-(trifluoromethyl)phenyl]-3-pyridyl]methyl]pyrrolidine-2-carboxamide], the pIC50 was 7.10.

`CC(C)n1c(=O)c(CNC(=O)[C@@H]2CCCN2S(=O)(=O)c2cc3cc(F)ccc3o2)cn(-c2ccc(Cl)cc2)c1=O` [Example 41, (2S)-N-[[1-(4-chlorophenyl)-3-isopropyl-2,4-dioxo-pyrimidin-5-yl]methyl]-1-(5-fluorobenzofuran-2-yl)sulfonyl-pyrrolidine-2-carboxamide]: the negative-log IC50 (pIC50) was 7.62.

`CC(C)n1c(=O)c(CNC(=O)[C@@H]2CCCN2S(=O)(=O)c2cc3ccccc3o2)cn(-c2ccc(C(F)(F)F)cn2)c1=O` [Example 33, (2S)-1-(benzofuran-2-ylsulfonyl)-N-[[3-isopropyl-2,4-dioxo-1-[5-(trifluoromethyl)-2-pyridyl]pyrimidin-5-yl]methyl]pyrrolidine-2-carboxamide]: the pIC50 was 7.36.

Turning to `CC(C)n1cc(CNC(=O)[C@@H]2CCCN2S(=O)(=O)c2cc3cnccc3o2)cc(-c2ccc(C(F)(F)F)cc2)c1=O` [Example 46, (2S)-1-fro[3,2-c]pyridin-2-ylsulfonyl-N-[[1-isopropyl-6-oxo-5-[4-(trifluoromethyl)phenyl]-3-pyridyl]methyl]pyrrolidine-2-carboxamide], the pIC50 is 7.01.

Regarding `Cn1c(=O)c(CNC(=O)[C@@H]2CCCN2S(=O)(=O)c2cc3cc(F)ccc3o2)cn(-c2ccc(C(F)(F)F)cc2)c1=O` [Example 5, (2S)-1-(5-fluorobenzofuran-2-yl)sulfonyl-N-[[3-methyl-2,4-dioxo-1-[4-(trifluoromethyl)phenyl]-pyrimidin-5-yl]methyl]pyrrolidine-2-carboxamide], the pIC50 is 7.68.

Regarding `CC(C)n1cc(CNC(=O)[C@@H]2CCCN2S(=O)(=O)c2cc3cc(F)ccc3o2)cc(-c2ccc(C(F)(F)F)cn2)c1=O` [Example 51, (2S)-1-(5-fluorobenzofuran-2-yl)sulfonyl-N-[[1-isopropyl-6-oxo-5-[5-(trifluoromethyl)-2-pyridyl]-3-pyridyl]methyl]pyrrolidine-2-carboxamide], the negative-log IC50 (pIC50) is 7.09.

Regarding `CC(C)n1c(=O)c(CNC(=O)[C@@H]2CCCN2S(=O)(=O)c2cc3cc(F)ccc3o2)cn(-c2ccc(F)cc2)c1=O` [Example 39], the pIC50 was 7.00.

With `O=C(NCc1ccc(=O)n(-c2ccc(C(F)(F)F)cc2)c1)[C@@H]1CCCN1S(=O)(=O)c1cc2cc(F)ccc2o1` [Example 22, (2S)-1-(5-fluorobenzofuran-2-yl)sulfonyl-N-[[6-oxo-1-[4-(trifluoromethyl)phenyl]-3-pyridyl]methyl]pyrrolidine-2-carboxamide], the pIC50 was 7.22.

As for `O=C(NCc1ccc(=O)n(-c2ccc(C(F)(F)F)cc2)c1)[C@@H]1CCCN1S(=O)(=O)c1cc2ccccc2o1` [Example 14, (2S)-1-(benzofuran-2-ylsulfonyl)-N-[[6-oxo-1-[4-(trifluoromethyl)phenyl]-3-pyridyl]methyl]pyrrolidine-2-carboxamide], the pIC50 was 6.80.

With `CC(C)n1cc(CNC(=O)[C@@H]2CCCN2S(=O)(=O)c2cc3ccccc3o2)cc(-c2ccc(C(F)(F)F)cn2)c1=O` [Example 50, (2S)-1-(benzofuran-2-ylsulfonyl)-N-[[1-isopropyl-6-oxo-5-[5-(trifluoromethyl)-2-pyridyl]-3-pyridyl]methyl]pyrrolidine-2-carboxamide], the pIC50 was 6.96.

As for `CC(C)n1c(=O)c(CNC(=O)[C@@H]2CCCN2S(=O)(=O)c2ccc(Cl)s2)cn(-c2ccc(C(F)(F)F)cc2)c1=O` [Example 11, (2S)-1-[(5-chloro-2-thienyl)sulfonyl]-N-[[3-isopropyl-2,4-dioxo-1-[4-(trifluoromethyl)phenyl]-pyrimidin-5-yl]methyl]pyrrolidine-2-carboxamide], the pIC50 was 7.48.

As for `CC(C)n1c(=O)c(CNC(=O)[C@@H]2[C@@H](O)CCN2S(=O)(=O)c2cc3cc(F)ccc3o2)cn(-c2ccc(C(F)(F)F)cc2)c1=O` [Example 8, (2S,3S)-1-(5-fluorobenzofuran-2-yl)sulfonyl-3-hydroxy-N-[[3-isopropyl-2,4-dioxo-1-[4-(trifluoromethyl)phenyl]pyrimidin-5-yl]methyl]pyrrolidine-2-carboxamide], the pIC50 is 7.19.

In the case of `CC(C)n1c(=O)c(CNC(=O)[C@@H]2[C@@H](O)CCN2S(=O)(=O)c2cc3cc(F)ccc3o2)cn(-c2ccc(C(F)(F)F)cn2)c1=O` [Example 35, (2S,3S)-1-(5-fluorobenzofuran-2-yl)sulfonyl-3-hydroxy-N-[[3-isopropyl-2,4-dioxo-1-[5-(trifluoromethyl)-2-pyridyl]pyrimidin-5-yl]methyl]pyrrolidine-2-carboxamide], the negative-log IC50 (pIC50) is 6.80.

Take `CC(C)n1cc(-c2ccc(C(F)(F)F)cn2)cc(CNC(=O)[C@@H]2CCCN2S(=O)(=O)c2cc3ccccc3o2)c1=O` [Example 42, (2S)-1-(benzofuran-2-ylsulfonyl)-N-[[1-isopropyl-2-oxo-5-[5-(trifluoromethyl)-2-pyridyl]-3-pyridyl]methyl]pyrrolidine-2-carboxamide]: the pIC50 is 7.10.

Turning to `CC(C)n1c(=O)c(CNC(=O)[C@@H]2CCCN2S(=O)(=O)c2cc3cnccc3o2)cn(-c2ccc(C(F)(F)F)cc2)c1=O` [Example 23, (2S)-1-fro[3,2-c]pyridin-2-ylsulfonyl-N-[[3-isopropyl-2,4-dioxo-1-[4-(trifluoromethyl)phenyl]-pyrimidin-5-yl]methyl]pyrrolidine-2-carboxamide], the negative logarithm of the IC50 (pIC50) is 7.70.
